In US10434225B2, “Para-xylene films and therapeutic uses thereof” (NORTHWESTERN UNIVERSITY, priority 2013, dated 2019):

System: Interleukin-6 (IL-6)
Assay: IL-6 gene expression by real-time PCR in macrophages on surfaces
Assay type: cell-based, murine
Conditions: RAW264.7 macrophages, LPS stimulated (+), DEX added to Control or integrated into PPX film
Protocol: In-vitro analysis and drug release was completed through deposition of PPX on varying culture plates. Surface treatment of prepared PPX culture plates either had plasma oxidation (Oxd) or lack thereof resulting in hydrophilic or hydrophobic surfaces (native form). RAW264.7 macrophages and NIH-3T3 fibroblasts were analyzed on varying surfaces to determine in-vitro response. Cells were kept in DMEM media supplemented with 10% FBS and 1% Pen/Strep in humidified atmosphere with 5% CO^2. Cellular analysis was completed through the application of time lapse bright field imaging in addition to multiple cellular assays examining viability (MTT, Roche Diagnostics), proliferation (CyQUANT, Life Technologies) and adhesion (Vybrant, Molecular Probes) onto polystyrene, representing baseline biocompatible control surfaces, and various PPX surfaces. RNA isolation was accomplished utilizing TRIzol reagent (Invitrogen Corporation, Carlsbad, Calif.) per the manufacturer's guidelines. cDNA was synthesized using the iScript Select cDNA Synthesis Kit (Quanta Biosciences, Gaithersburg, Md.). PCR was done using SYBER Green detection reagents (Quanta Biosciences, Gaithersburg, Md.) and appropriate primers for IL-6 and β-Actin (Integrated DNA Technologies, Coralville, Iowa). Samples were amplified using a MyiQ real-time PCR detection system (Bio-Rad).

SMILES: C[C@@H]1C[C@H]2[C@@H]3CCC4=CC(=O)C=C[C@]4(C)[C@@]3(F)[C@@H](O)C[C@]2(C)[C@@]1(O)C(=O)CO [DEX, dexamethasone]
- IL-6 expression, LPS stimulation (+) with DEX: 217.4±54.0
